Residues, ends and D or L forms follow the SMILES beside them.
Which melting point does the source give for `Cc1nc(CCl)c(Br)s1` here?
Its melting point is 154 to 156 °C.

With `NC(=O)c1cc(-c2ccc3nnn(Cc4ccc5ncccc5c4)c3n2)ccc1F` as the compound, how does the melting point read?
Its melting point is 262 to 264 °C.

With `CC(C)(C)C1=CC(=CC#N)C=C(C(C)(C)C)C1=O` as the compound, how does the melting point read?
The melting point was 110 to 111 °C.

For `CC(O)=C(C#N)CC(=O)Nc1ccc(NC(=O)CBr)cc1`, which melting point is on record?
Its melting point is greater than 210 °C.

With `C[C@H](N)C(=O)N1CCC[C@H]1C(=O)O` (H-Ala-Pro-OH) as the compound, how does the melting point read?
Its melting point is 106 to 132 °C.

For `O=C(O)C=Cc1ccc(O)c(Cl)c1`, which melting point is on record?
Its melting point is 180 to 182 °C.

With `CCOC(=O)c1ccc(Br)cc1COC(C)=O` as the compound, how does the melting point read?
The melting point was 51.5 to 52.5 °C.

For `CC(=O)c1cc(Nc2nc(N)nc(N)n2)cc(C(C)=O)c1`, which melting point is on record?
The melting point was 271 to 272 °C.

For `CCOC(=O)CCc1cn(Cc2cc(OCc3ccccc3)cc(OCc3csc(-c4cnccn4)n3)c2)cc1-c1ccccc1`, which melting point is on record?
The melting point was 126 to 127 °C.

Which melting point does the source give for `CC(C)(C)OC(=O)Nc1ccc(OC2CNC2)cc1` here?
Its melting point is 184 to 186 °C.

Which melting point does the source give for `Cc1ccc(NC(=O)NCc2ccc3c(c2)CN(C2CCC(=O)NC2=O)C3=O)cc1O` (stereo not given) here?
Its melting point is 273 to 275 °C.

With `CNC(=O)C1(C)Oc2c(C)c(C)c(O)c(C)c2CC1OC` (stereo not given) as the compound, how does the melting point read?
The melting point was 139 to 140 °C.

Which melting point does the source give for `O=C1c2ccccc2OCOc2ccccc21` here?
The melting point was 93 to 95 °C.

With `OC(c1ccccc1)(c1ccc(C(F)(F)F)cc1)c1ncc[nH]1` (stereo not given) as the compound, how does the melting point read?
Its melting point is 174 to 176 °C.

With `CC(C)N1C(=O)C2Cc3nc[nH]c3CN2C1=O` (stereo not given) as the compound, how does the melting point read?
Its melting point is 149 to 157 °C.

For `Nc1c(Cl)cc(C(O)CNCCCCCCOCCCc2ccc([N+](=O)[O-])cn2)cc1Cl` (stereo not given), which melting point is on record?
The melting point was 60 to 61 °C.

For `COCc1nc2c(NCc3c(C)cccc3C)cc(C(=O)NCCO)cc2n1C`, which melting point is on record?
The melting point was 186 to 187 °C.

Which melting point does the source give for `Oc1cccc(-n2cnc(-c3ccccc3)c2)c1` here?
The melting point was 195 to 197 °C.

Which melting point does the source give for `O=C(c1cccs1)c1cnn2c(-c3cccc(NC(=S)Nc4ccccc4)c3)ccnc12` here?
The melting point was 124 to 126 °C.

For `CCOC(=O)COC1CCC2C3CCC4N(C)C(=O)CCC4(C)C3CCC12C` (stereo not given), which melting point is on record?
Its melting point is 39 to 41 °C.

For `O=[N+]([O-])c1cc(NCCO)ccc1NCCO`, which melting point is on record?
The melting point was 107 °C.

With `NC(CC(=O)O)C1CC=CCC1` (stereo not given) as the compound, how does the melting point read?
The melting point was 208 to 210 °C.

With `CCCn1nc2c(N)nc3ccccc3c2c1NCC` as the compound, how does the melting point read?
Its melting point is 193 to 194 °C.

Which melting point does the source give for `COc1cc(C)nc(NC(=O)NS(=O)(=O)c2cccc3c2C(Cl)=CC3)n1` here?
Its melting point is 168 to 172 °C.

Which melting point does the source give for `CN(C)c1nc(N(C)C)nc(N(C)Cc2ccc(O)cc2)n1` here?
The melting point was 163 to 164 °C.

Which melting point does the source give for `O=C(N[C@@H](CNC(=O)c1ccc(C2CC2C(=O)NC2=NCCCN2)s1)C(=O)O)OCc1ccccc1` (stereo not given in full) here?
Its melting point is 98 °C.

Which melting point does the source give for `CCCC[Si](C)(C)CCSCCNC(=O)n1cc(F)c(=O)[nH]c1=O` here?
The melting point was 71 to 72 °C.

With `COC(=O)c1ccc(CNC(=NC#N)NCCNC(=O)c2nc(Cl)c(N)nc2N)cc1` as the compound, how does the melting point read?
The melting point was 190 to 195 °C.

With `O=C(O)CCCCCCCCCCCNC(=O)CCCCCCCCCCI` as the compound, how does the melting point read?
The melting point was 107 to 110 °C.

For `NC(=O)c1ncn2c1[C@@H]1CCN1C(=O)c1c-2ccc(F)c1Cl`, which melting point is on record?
Its melting point is 296 to 298 °C.

With `CCOC(=O)C1=C(C)NN=C(CC)C1c1ccccc1Cl` (stereo not given) as the compound, how does the melting point read?
Its melting point is 112 °C.

With `COCCOC1c2ccn3c(Br)c(C)nc3c2N(C(C)=O)C(c2ccccc2)C1OC(=O)C(C)(C)C` (stereo not given) as the compound, how does the melting point read?
Its melting point is 166 to 167 °C.

For `CSc1nc(O)cc(-c2cccc(C#N)c2)n1`, which melting point is on record?
Its melting point is greater than 220 °C.

With `CCNc1c(F)cc2c(=O)c(C(=O)O)cn(-c3cc(N)c(F)cc3F)c2c1Cl` as the compound, how does the melting point read?
Its melting point is 252 to 255 °C.

With `CCCCc1nc2c(c(C)c(C)n3nnnc23)n1CC(C)(C)NC(=O)NC1CCCCC1` as the compound, how does the melting point read?
Its melting point is 194 to 197 °C.

For `Cc1cc(C(=O)O)ccc1Cc1cc2cc(C(F)(F)F)ccc2n1S(=O)(=O)c1cccc(C(C)(C)C)c1`, which melting point is on record?
Its melting point is 135 °C.

Which melting point does the source give for `O=C(NCc1ncc(C(F)(F)F)cc1Cl)c1c(Cl)nc2c(c1Cl)CCCC2` here?
The melting point was 48 to 50 °C.

With `Cc1ncc2cccc(O)c2n1` as the compound, how does the melting point read?
Its melting point is 135 to 137 °C.

For `CC(=O)c1ccc(CCCCCCOc2ccc(C(=O)c3cccc(C(=O)O)c3)cc2CCC(=O)O)cc1`, which melting point is on record?
Its melting point is 139 to 141 °C.

With `CCOC(=O)c1ccc(/C=C(\CC)c2ccc3c(c2)C(C)(C)CCC3(C)C)cc1` as the compound, how does the melting point read?
The melting point was 82 to 83 °C.

With `CC1CS/C(=N/N=C\c2ccc(-c3ncn(-c4ccc(OC(F)(F)F)cc4)n3)cc2)N(c2ccccc2C(C)C)C1` (stereo not given) as the compound, how does the melting point read?
The melting point was 186 to 190 °C.

Which melting point does the source give for `CC(C)(C)c1ccc(-c2csc(-c3cccc(C(=O)O)c3)n2)cc1` here?
Its melting point is 250 to 251 °C.

Which melting point does the source give for `O=C(NCCCC[C@H](O)C(=O)O)OCc1ccccc1` here?
Its melting point is 79 to 81 °C.

For `O=C(O)CCOc1cccc2cccnc12`, which melting point is on record?
Its melting point is 211 to 213 °C.

With `COC(=O)c1ccc(=O)n(CCNC(=O)c2ccc(C)nc2)c1` as the compound, how does the melting point read?
Its melting point is 184 to 185 °C.

Which melting point does the source give for `CCOC(=O)c1ccc(Nc2ncccc2NS(=O)(=O)c2ccc(OC)cc2)cc1` here?
The melting point was 172 to 173 °C.

For `Cc1cc2c(cc1C)-n1c(C)nnc1C=C(c1ccc(-n3c(C)nc4cnccc43)cc1)N2`, which melting point is on record?
Its melting point is 294 to 296 °C.

With `O=C(C=Cc1ccccc1)c1ccc(OCc2ccccc2)cc1O` as the compound, how does the melting point read?
Its melting point is 116 to 118 °C.

For `CC(C)(O)Cn1cnc2c(N)nc3c(c21)CCCC3`, which melting point is on record?
The melting point was 260 to 261 °C.

For `O=C(O)Cc1ccc(-c2cn3ccsc3n2)cc1`, which melting point is on record?
Its melting point is 248 to 249 °C.
